In patent publication EP4653443A1, “STEREOISOMER AND DEUTERATED DERIVATIVE OF PYRAZOLOQUINAZOLINE COMPOUND AND USE” (Phil Rivers Technology Co., Ltd, priority 2023, dated 2024):
Where two headings read alike, the source gives them in different places.

Columns and labels:
[1] = system: pancreatic cancer cell line (PSN1); assay: Proliferation inhibitory activity on cell line PSN1 (CellTiter-Glo, 72 hours); format: cell-based; conditions: for IC50: Homo sapiens, PSN1 cell proliferation; for Max Inhibition Percentage: PSN1 cells
Method: • a) Adherent cells need to be digested and centrifuged, while suspension cells can be directly centrifuged; • b) Resuspend with complete culture medium and count using an automatic cell counter; • c) Plate 6,000 cells per well for PSN1, and dilute the cell suspension to the required density; • d) Add 100 µL of cells per well, and culture overnight at 37°C in a 5% CO2 incubator to stabilize and balance the cells.
• a) Prepare the compound with DMSO as a solution of 200-fold final concentration; • b) Dilute the 200-fold compound to a 3-fold final concentration with complete culture medium; • c) Add 50 µL of the compound per well, use wells with the same volume of culture medium as controls, and continue culturing in a 37°C, 5% CO2 incubator for 72 hours.
• a) Equilibrate the cell plate and CTG reagent to room temperature; • b) Add 30 µL of CellTiter-Glo® reagent per well; • c) Incubate at room temperature for 15 minutes; • d) Detect with a microplate reader.
• 1) Calculate IC50 using GraphPad Prism 8; • 2) %Inh = (1-(Raw data - Meanmin) / (Meanmax - Meanmin))×100; • 3) Meanmax is the positive control well with only cells and the same volume of culture medium; • 4) Meanmin is the negative control well with only culture medium; • 5) Raw data refers to the signal values of wells with added compounds. For two replicate wells, they are denoted as Raw1 and Raw2.

in vivo = conditions: iv
Method: (§4) The objective of this study is to investigate the pharmacokinetic properties of the disclosed compounds after tail vein intravenous injection (IV) and oral administration (PO) in female CD1 mice. Plasma was sampleed at 0, 0.083, 0.25, 0.5, 1, 2, 4, 7 and 24 hours post-dosing, and the drug concentrations in plasma at different time points were detected by LC-MS/MS, and the relevant pharmacokinetic parameters were calculated using WinNonlin software.
(§5) Experimental female CD1 mice were purchased from SPF Laboratory Animal Technology Co., Ltd., aged 6-8 weeks with body weights of 20-30 g. The female CD1 mice were housed in a controlled environment (set temperature at 20-25°C and relative humidity at 40-70%). A 12-hour light/12-hour dark cycle was maintained unless interrupted by study-related events.
(§6) Compound solutions are prepared in an ultra-clean workbench and prepared immediately before use, and mixed thoroughly prior to use to ensure formulation homogeneity.
(§7) Vehicle composition: 10% DMSO+90% (20%SBE-β-CD) Table 4. Doses Used in IV Administration
(§8) Vehicle composition: 10% DMSO + 90% (20%SBE-β-CD) Table 5. Doses Used in PO Administration
(§9) Vehicle composition: 0.5% MC + 1% Tween-20 Table 6. Doses Used in PO Administration
(§10) Prior to the experiment, the animals were randomly grouped. The mice were fasted for 12 hours before drug administration, and free feeding was resumed 4 hours after administration.
(§11) All blood samples were transferred into plastic microcentrifuge tubes containing anticoagulant (EDTA-K2), and then centrifuged at 4000 g for 5 minutes at 4°C. The supernatant was transferred into a microcentrifuge tube without anticoagulant, and the plasma was stored in a -75±15°C refrigerator until detection.
(§12) The blood samples were purified by HPLC and analyzed by mass spectrometry to obtain the plasma concentration-time curve of the disclosed compound.
(§13) The pharmacokinetic parameters were estimated by non-compartmental model method (calculated by Phoenix WinNonlin software).

[2] = Metabolic stability in liver microsomes (human); format: in vitro ADME; conditions: for Residual Amount (%) 15 min / Residual Amount (%) 30 min / Residual Amount (%) 45 min / Residual Amount (%) 60 min: Human, first line of pair; for half-life at 2 µM / microsomal CLint at 2 µM: pH 7.4
Method: (§1) For negative samples, add 80µL of PBS (100mM, pH = 7.4) solution. Vortex at 800 rpm for 10 seconds, then pre-incubate in a 37°C water bath for 10 minutes. • 4) After pre-incubation, add 2 µL of control drug or test compound to each well to initiate the reaction. The reaction is carried out in a 37°C water bath at 60 rpm. • 5) At 0.5, 15, 30, 45, and 60 minutes, take 50 µL of the reaction system from each well and add it to 200 µL of cold methanol solution containing the internal standard to terminate the reaction. • 6) Mix thoroughly and centrifuge at 4000 rpm at 4°C for 30 minutes. • 7) Take 100µL of supernatant and mix with 100µL ultrapure water for liquid-mass analysis. *Internal standards: 50nM alprazolam, 50nM labetalol and 100nM ketoprofen
(§2) The internal standard method is adopted, and the ratio of the sample peak area to the internal standard peak area is used to calculate the residual percentage (taking the ratio of the sample peak area to the internal standard peak area at 0.5 minutes as 100%).

PSN1 cells = format: in vivo; conditions: for TGI: endpoint (day 31), TGITV; for mice died: 8 mice per group
Method: • M-NSG mice: SPF grade, female, 6-8 weeks old, weighing 16-20 g, purchased from Shanghai Model Organisms Technology Co., Ltd. • PSN1 cells: purchased from ATCC;
PSN1 cells were cultured in an incubator at 37°C and 5% CO2 in RPMI-1640 medium containing 10% inactivated fetal bovine serum. Cells were subcultured by passaging into new culture dishes every 2 to 3 days when they reach confluent.
• 8.2.3.1 PSN1 cells in the logarithmic growth phase were taken and resuspended in PBS. The cell suspension was inoculated subcutaneously into the right flank of M-NSG mice using a 1mL syringe (inoculated cell count: 5E6/mouse + 30%M). The survival status of the mice and the subcutaneous tumor formation were observed every other day. • 8.2.3.2 On the day of grouping, mice were randomly divided into 8 groups with 8 mice in each group based on the average tumor volume (~190 mm^3) and mouse body weight; • 8.2.3.3 The mice were dosed according to the grouping scheme, all by intragastric administration. […]. The hair condition and status of the mice were observed, and the body weight and tumor size were recorded twice a week to calculate TGI%. • 8.2.3.4 Grouping of Test Animals
When the average tumor volume reached ~ 190 mm^3, mice with moderate individual tumor volume were selected for inclusion in the group. The animals were randomly assigned to experimental groups according to tumor volume and mouse weight, with 8 mice in each group. Administration started one day after grouping.
TV = 1/2 × a × b2 [formula] wherein: a represents the long diameter of the tumor; b represents the short diameter of the tumor.
RTV = Vt /Vinitial × 100(%) [formula]
T/C(%) = (TRTV/CRTV) × 100% [formula]
TGI = [1−(TVt/TVinitial)/([…])] × 100% [formula]
wherein, TVt represents the tumor volume of the treatment group at each measurement; TVinitial represents the tumor volume of the treatment group at the time of grouping and administration; CVt represents the tumor volume of the control group at each measurement; CVinitial represents the tumor volume of the control group at the time of grouping and administration.
Body Weight Change Rate = (BWfinal-BWinitial) / BWinitial × 100% [formula] wherein, BWinitial represents the animal body weight at the time of grouping and administration; BWfinal represents the animal body weight at each measurement.
The original data of measurement and observation must be recorded. The analysis and processing are based on the original data, and the results are presented as mean and standard error of the mean (Mean ± SEM). T-test is used to analyze the difference in tumor volume between the control group and the treatment group. P < 0.05 indicates statistical significance.

[3] = Metabolic stability in liver microsomes (mouse); format: in vitro ADME; conditions: for Residual Amount (%) 15 min / Residual Amount (%) 30 min / Residual Amount (%) 45 min / Residual Amount (%) 60 min: Mouse, first line of pair
Method: as §1, §2

[4] = Permeability and transporter substrate test in Caco-2 cells (ABBA); format: in vitro ADME; conditions: human, pH 7.4; for Papp A→B at 2 h, 5 µM: Caco-2, A to B, read-out: Average Papp PappA-B; for Papp B→A at 2 h, 5 µM: Caco-2, B to A, read-out: Average Papp PappB-A; for efflux ratio at 2 h, 5 µM: Caco-2, Papp(B-A)/Papp(A-B), read-out: Efflux Rate (ERa)
Method: (§3) Apparent permeability coefficient (Papp, cm/s) and efflux ratio were calculated using Microsoft Excel.

Caco-2 cells = assay: as above; format: in vitro ADME; conditions: Caco-2
Method: as §3

[5] = system: Pancreatic cancer cell line BxPC-3; assay: BxPC-3 subcutaneous tumor xenograft mouse model (pancreatic cancer); format: in vivo; conditions: for TGI: test endpoint, TGITV
[6] = Pharmacokinetic study in mice (IV and PO, plasma LC-MS/MS)
Method: as §4, §5, §6, §7, §8, §9, §10, §11, §12, §13

[7] = 90 mg/kg p.o. q.d. 10 consecutive days
[8] = female, CD1, mouse, plasma, 2 mg/kg
[9] = female, CD1, mouse, plasma, 10 mg/kg
[10] = 60 mg/kg p.o. QD*6 times, during administration
[11] = male, CD-1, pH 7.4, Mouse liver microsomes
[12] = 60 mg/kg p.o. q.d. 10 consecutive days
[13] = 30 mg/kg p.o. q.d. 10 consecutive days

Row | Structure (SMILES) | IC50 [1] [nM] | Max Inhibition Percentage ([1]; first column of this head) | Max Inhibition Percentage ([1]; second column of this head) | Residual Amount (%) 15 min [2] [%] | Residual Amount (%) 30 min [2] [%] | Residual Amount (%) 45 min [2] [%] | Residual Amount (%) 60 min [2] [%] | Residual Amount (%) 15 min [3] [%] | Residual Amount (%) 30 min [3] [%] | Residual Amount (%) 45 min [3] [%] | Residual Amount (%) 60 min [3] [%] | Papp A→B at 2 h, 5 µM [4] [×10⁻⁶ cm/s] | Papp B→A at 2 h, 5 µM [4] [×10⁻⁶ cm/s] | efflux ratio at 2 h, 5 µM [4] | Classification Efflux Transporter Substrate (Caco-2 cells) | F ([6]; PO 10 mg/kg vs IV 10 mg/kg) [%] | AUC(0-t) (in vivo; [9]) [ng·h/mL] | Vd (in vivo; [9]) [L/kg] | clearance (in vivo; [9]) [mL/min/kg] | half-life (in vivo; [9]) [min] | also measured
1 | [2H]C1([2H])CN(c2ccc(OC(F)(F)F)c(Nc3ncc4c(n3)-c3c(c(C(N)=O)nn3CCO)CC4)c2)C([2H])([2H])[C@H]2CCCN21 [CPD04] | 105 | 87.6 | 1.3 | 52.72 | 28.62 | 21.10 | 13.41 | 61.30 | 39.18 | 34.10 | 26.56 | 4.2 | 25.1 | 5.98 | Probable (ERa ≧ 2) | 42.8 | – | – | – | – | AUC(0-t) (in vivo; mouse, in vivo, 10 mg/kg): 3340 ng·h/mL; Vd (in vivo; mouse, in vivo, 10 mg/kg): 2.31 L/kg; clearance (in vivo; mouse, in vivo, 10 mg/kg): 50.1 mL/min/kg; half-life (in vivo; mouse, in vivo, 10 mg/kg): 63.6 min; half-life ([2]; Human liver microsomes): 20.9 min; microsomal CLint ([2]; Human liver microsomes): 66.2 µL/min/mg; Mouse Mortality Rate (PSN1 cells; 90 mg/kg p.o. QD*6 times): 0%; mouse death (PSN1 cells; 90 mg/kg p.o. QD*6 times): no mouse death was found; TGI (PSN1 cells; 90 mg/kg p.o. QD*6 times): 40%; body weight loss (PSN1 cells; 90 mg/kg p.o. QD*6 times, throughout the period): no body weight loss was observed; half-life ([3]; Mouse liver microsomes): 31.9 min; microsomal CLint ([3]; Mouse liver microsomes): 43.4 µL/min/mg; Mouse Mortality Rate [5, 7]: 0%; TGI [5, 7]: 53%
2 | CN1CCN(c2ccc(OC(F)(F)F)c(Nc3ncc4c(n3)-c3c(c(C(N)=O)nn3CCO)CC4)c2)CC1 [NMS-P937, onvansertib, reference compound] | 53.7 | 85.9 | 2.3 | 80.23 | 73.16 | 69.74 | 58.94 | 82.56 | 69.31 | 61.60 | 53.17 | 6.09 | 34.2 | 5.61 | Probable (ERa ≧ 2) | 27.1 | 4540 | 3.22 | 36.9 | 211 | AUC(0-t) (in vivo; [8]): 353 ng·h/mL; Vd (in vivo; [8]): 5.71 L/kg; clearance (in vivo; [8]): 95.7 mL/min/kg; half-life (in vivo; [8]): 91.2 min; half-life at 2 µM ([2]; Human liver microsomes): 86.3 min; microsomal CLint at 2 µM ([2]; Human liver microsomes): 16.1 µL/min/mg; Mouse Mortality Rate (PSN1 cells; 60 mg/kg p.o. QD*6 times): 50%; mice died (PSN1 cells; 60 mg/kg p.o. QD*6 times): half; body weight loss (PSN1 cells; [10]): decreased severely; half-life at 2 µM [3, 11]: 66.4 min; microsomal CLint [3, 11]: 20.9 µL/min/mg; Mouse Mortality Rate [5, 12]: 25%; TGI [5, 12]: 61%; mice died ([5]; 60 mg/kg p.o. q.d., 8 mice per group): 2; F ([6]; PO 5 mg/kg vs IV 2 mg/kg): 20.5%
3 | [2H]C1([2H])N(C)C([2H])([2H])C([2H])([2H])N(c2ccc(OC(F)(F)F)c(Nc3ncc4c(n3)-c3c(c(C(N)=O)nn3CCO)CC4)c2)C1([2H])[2H] [CPD06] | 57 | 93.7 | 13.7 | 86.05 | 73.64 | 68.37 | 63.15 | 81.80 | 68.21 | 64.96 | 57.01 | 5.18 | 34.7 | 6.71 | Probable (ERa ≧ 2) | 43.1 | 3050 | 3.02 | 55.1 | 63 | half-life at 2 µM ([2]; Human liver microsomes): 89.9 min; microsomal CLint at 2 µM ([2]; Human liver microsomes): 15.4 µL/min/mg; Mouse Mortality Rate (PSN1 cells; 60 mg/kg p.o. QD*6 times): 0%; mice died (PSN1 cells; 60 mg/kg p.o. QD*6 times): No mice died; body weight loss (PSN1 cells; [10]): ≤ 15%; TGI (PSN1 cells; 60 mg/kg p.o. QD*6 times): 53%; half-life at 2 µM [3, 11]: 76.3 min; microsomal CLint [3, 11]: 18.2 µL/min/mg; Mouse Mortality Rate [5, 13]: 0%; TGI [5, 13]: 33%; Mouse Mortality Rate [5, 12]: 0%; TGI [5, 12]: 71%; toxic symptoms during the treatment ([5]; BxPC-3 tumor-bearing mice): No obvious toxic symptoms were observed
